These results are taken from US20230054194A1, “Methods of Treating Cancer” (ARIAGEN, INC., priority 2018, published 2023).

For assay [1], the system named is CT26. The assay is described as follows: CT-26 subcutaneous syngeneic colon cancer mouse model (Study 4), tumor growth inhibition. Type of assay: in vivo, mouse (BALB/C). The settings on record: for TGI(%) / Tumor size (Mean ± SEM): CT-26 model, i.p., ARI compounds 160 mg/kg QD × 15 doses, Anti-PD-1 10 BIW × 5 doses, study end day Day 23. The protocol: (§1) In this example, the in vivo anti-tumor efficacy of ARI-001, ARI-002, ARI-003, and ARI-143 and their combinations with an anti-PD-1 antibody was evaluated using a panel of twelve subcutaneous syngeneic mouse tumor models.
(§2) Eleven subcutaneous syngeneic mouse tumor models were generated by innoculating female BALB/C or C57BL/6 mice with cancer cells at their right lower or right front flank followed by randomization as detailed in Table 4 below.
(§3) A solution of a rat monoclonal anti-mouse PD-1 antibody (isotype IgG2a, κ) at a concentration of 6.61 mg/ml was obtained from BioXcell (InVivoMAb anti-mouse PD-1 (CD279), Clone RMP1-14, Cat #BE0146)) and store at 4° C. The antibody solution was diluted with PBS to obtain a 1 mg/ml dosing solution.
(§4) ARI-001, ARI-002, and ARI-003 powder was stored at −20° C. The powder of each compound was dissolved in DMSO to obtain dosing solutions at 106.7, 80, and 53.33 mg/ml for administration to mice at 160, 120, and 80 mg/kg, respectively. ARI-143 was similarly prepared.
(§5) Twelve studies using the twelve subcutaneous syngeneic mouse tumor models were performed. In each study, 80 mice were enrolled and randomly allocated to eight different study groups, with 10 mice in each study group. The mean tumor size at randomization was approximately 80-120 mm^3 (around 100 mm^3). Randomization was performed based on “Matched distribution” randomization method (StudyDirector™ software, version 3.1.399.19). […] All the drugs and vehicle controls were injected to the mice intraperitoneally.
(§6) After tumor cell inoculation, the animals were checked daily for morbidity and mortality. At the time of routine monitoring, the animals were checked for any effects of tumor growth and treatments on behavior such as mobility, food and water consumption, body weight gain/loss (body weights were measured twice or three times per week after randomization), and any other abnormalities. Mortality and observed clinical signs were recorded for individual animals. Tumor volumes were measured twice or three times weekly after randomization in two dimensions using a caliper, and the volume was expressed in mm^3 using the formula: […]
(§7) where V is tumor volume, L is tumor length (the longest tumor dimension) and W is tumor width (the longest tumor dimension perpendicular to L).
(§8) The study was terminated when the mean tumor volume (MTV) in the vehicle group reached a value of 2,000 mm^3. Tumor growth inhibition (TGI) is an indication of antitumor activity, and expressed as: […]
(§9) where T and C are the MTV (or weight) of the treated and control groups, respectively, on a given day. Statistical analysis of the difference in MTV among the groups was conducted using the data collected on the day when the MTV of the vehicle group reached the humane endpoints, so that TGI could be derived for all or most mice enrolled in the study.
(§10) Statistical analysis of differences in MTV among the groups was conducted by Independent-Samples T Test using the data collected. All data were analyzed with SPSS (Statistical Product and Service Solutions) version 18.0 (IBM, Armonk, N.Y., U.S.). P-values were rounded to three decimal places, with the exception that raw P-values less than 0.001 were stated as P<0.001. All tests were two-sided. P<0.05 was considered to be statistically significant.
FIG. 63 is a graph showing the mean tumor volume on different study days in the study groups as indicated according to Study 4 (CT-26). The study end day was Day 23.

Assay [2] concerns Renca. The assay is described as follows: Renca subcutaneous syngeneic kidney cancer mouse model (Study 8), tumor growth inhibition. The assay is classed as in vivo, mouse (BALB/C). The conditions noted are these: for Tumor size / TGI(%): Renca model, study end day Day 28; for Tumor size: Mean ± SEM, in mm³; for anti-tumor potency of anti-PD-1 antibody combined with the compound, compared to the antibody alone: Renca syngeneic kidney cancer model. The protocol: as §1, §2, §3, §4, §5, §6, §7, §8, §9, §10
FIG. 67 is a graph showing the mean tumor volume on different study days in the study groups as indicated according to Study 8 (Renca). The study end day was Day 28.

Assay [3] relates to Pan02. Put plainly: Pan02 subcutaneous syngeneic pancreatic cancer mouse model (Study 3), tumor growth inhibition. Type of assay: in vivo, mouse (C57BL/6). The settings on record: for TGI(%) / Tumor size (Mean ± SEM): Pan02 model, i.p., ARI compounds 160 mg/kg QD × 28 doses, Anti-PD-1 10 BIW × 8 doses, study end day Day 32; for anti-tumor potency of anti-PD-1 antibody combined with the compound, compared to the antibody alone: Pan02 syngeneic pancreatic cancer model. The protocol:
as §1, §2, §3, §4, §5, §6, §7, §8, §9, §10
FIG. 62 is a graph showing the mean tumor volume on different study days in the study groups as indicated according to Study 3 (Pan02). The study end day was Day 32.

With `COC(=O)c1csc(C(=O)c2c[nH]c3ccccc23)n1` [ARI-001], in assay [1], the “TGI(%)” value was found to be 56% and the “Tumor size (Mean ± SEM)” value was 1015.32 ± 114.50 mm^3. For the same compound, in assay [2], the Tumor size amounted to 1367.52 ± 118.53; the “TGI(%)” value is given as 36%; the “anti-tumor potency of anti-PD-1 antibody combined with the compound, compared to the antibody alone” value is given as “statistically significant increase”. In addition, in assay [3], the “TGI(%)” value is recorded as 60%; the “Tumor size (Mean ± SEM)” value is 357.19 ± 232.32 mm^3; the “anti-tumor potency of anti-PD-1 antibody combined with the compound, compared to the antibody alone” value is reported as “statistically significant increase”.
Regarding `CCC(=O)c1csc(C(=O)c2c[nH]c3ccccc23)n1` [ARI-002], the “TGI(%)” value worked out at 51% in assay [1], 49% in assay [2] and 66% in assay [3]. Further, the “Tumor size (Mean ± SEM)” value in assay [1] is on record as 1112.29 ± 124.36 mm^3; in assay [3] it was 308.02 ± 177.67 mm^3. Besides, the “anti-tumor potency of anti-PD-1 antibody combined with the compound, compared to the antibody alone” value in assay [1] (CT-26 syngeneic colon cancer model), in assay [2] and in assay [3] was “statistically significant increase” in each case. In addition, the Tumor size in assay [2] amounted to 1101.99 ± 92.71.
